Measurements as given in patent US9120795B2, “Crystalline form of a β-lactamase inhibitor” (Cubist Pharmaceuticals, Inc., priority 2013, dated 2015).

Tests used:
Test in all cases: Standard BLI potentiation MIC assay
Assay type in all cases: cell-based
[1] = system: Kpn.2783 (CTX-M-15, SHV+, TEM+, clinical); details: Klebsiella pneumoniae, read-out: MIC of β-lactam with BLI
Protocol: (§1) The experimental protocol was performed according to Clinical and Laboratory Standards Institute (CLSI) guidelines with modifications as described below (CLSI guidelines can be derived from the CLSI document M07-A9 published in January 2012: “Methods for Dilution Antimicrobial Susceptibility Tests for Bacteria That Grow Aerobically; Approved Standard-Ninth Edition”).
(§2) To prepare for MIC testing, frozen glycerol stocks of clinical isolates (Klebsiella pneumoniae, Eschericia coli, Enterobacter spp, Citrobacter spp, or Pseudomonas aeruginosa) were used to streak for isolated colonies on rich, non-selective, tryptic soy agar containing 5% sheep's blood (TSAB). Frozen glycerol stocks of laboratory engineered, isogenic E. coli strains, which contain cloned β-lactamase expressing plasmids were used to streak for isolated colonies on rich, selective LB agar supplemented with 25 μg/mL tetracycline to maintain the plasmid. All strains were incubated at 37° C. for 18-24 hrs.
(§3) On the day of testing, primary cultures were started by scraping off 5-10 colonies from the TSAB plates containing clinical strains or the tetracycline supplemented LB plates containing engineered strains. The clinical strain material was suspended in ˜5 mL of cation adjusted Mueller Hinton Broth (CAMHB) in 14 mL culture tubes. The engineered strain material was suspended in CAMHB (supplemented with 25 μg/mL tetracycline) in 14 mL culture tubes. All strains were incubated at 37° C. with aeration (200 rpm) for ˜2 hrs until the optical density at 600 nm (OD600) was ≧0.1.
(§4) The two compound components of the assay were each diluted in CAMHB and added to the 96-well broth microdilution assay plates. 50 μL of the β-lactam was added to each well of the assay plate in 2-fold dilutions with final concentrations ranging from 128 to 0.13 μg/mL. 25 μL of the BLI compound was added to all wells in the broth microdilution plates at a final concentration of 4 μg/mL. Inoculum cultures were prepared by standardizing the primary cultures to OD600=0.1 and then adding 20 μL of the adjusted primary culture per 1 mL CAMHB for clinical strains or CAMHB (supplemented with tetracycline at 100 μg/mL) for engineered strains, so that the final inoculum density was ˜10^5 colony forming units per milliliter. Diluted inoculum cultures were used to inoculate 25 μL per well in 96-well broth microdilution assay plates. The final volume of each well was 100 μL and contained a β-lactam at different concentrations, a BLlcompound at 4 μg/mL concentration, the bacterial culture at an OD600 of approximately 0.001 and when necessary tetracycline at 25 μg/mL.
(§5) Plates were incubated for 18-20 hours at 37° C. with aeration (200 rpm). Following incubation, growth was confirmed visually placing plates over a viewing apparatus (stand with a mirror underneath) and then OD600 was measured using a SpectraMax 340PC384 plate reader (Molecular Devices, Sunnyvale, Calif.). Growth was defined as turbidity that could be detected with the naked eye or achieving minimum OD600 of 0.1. MIC values were defined as the lowest concentration producing no visible turbidity.

[2] = system: Kpn.2926 (CTX-M-15, OXA-48, clinical); details: Klebsiella pneumoniae, read-out: MIC of β-lactam with BLI
Protocol: as §1, §2, §3, §4, §5

[3] = system: Kpn.2478 (KPC-2, TEM+, clinical); details: Klebsiella pneumoniae, read-out: MIC of β-lactam with BLI
Protocol: as §1, §2, §3, §4, §5

[4] = system: Pae.2808 (KPC-2, clinical); details: Pseudomonas aeruginosa, read-out: MIC of β-lactam with BLI
Protocol: as §1, §2, §3, §4, §5

[5] = system: Kpn.2917 (KPC-2, SHV+, clinical); details: Klebsiella pneumoniae, read-out: MIC of β-lactam with BLI
Protocol: as §1, §2, §3, §4, §5

[6] = system: Pae.2757 (AmpC over-expn, clinical); details: Pseudomonas aeruginosa, read-out: MIC of β-lactam with BLI
Protocol: as §1, §2, §3, §4, §5

[7] = system: Pae.2863 (AmpC de-repress, clinical); details: Pseudomonas aeruginosa, read-out: MIC of β-lactam with BLI
Protocol: as §1, §2, §3, §4, §5

[8] = system: Kpn.2913 (KPC-2, SHV+, clinical); details: Klebsiella pneumoniae, read-out: MIC of β-lactam with BLI
Protocol: as §1, §2, §3, §4, §5

[9] = system: Kpn.2909 (KPC-3, SHV+, TEM+, clinical); details: Klebsiella pneumoniae, read-out: MIC of β-lactam with BLI
Protocol: as §1, §2, §3, §4, §5

[10] = system: Pae.2885 (AmpC, clinical); details: Pseudomonas aeruginosa, read-out: MIC of β-lactam with BLI
Protocol: as §1, §2, §3, §4, §5

[11] = system: Kpn.2490 (KPC-3, SHV+, TEM+, clinical); details: Klebsiella pneumoniae, read-out: MIC of β-lactam with BLI
Protocol: as §1, §2, §3, §4, §5

[12] = system: Kpn.571 (TEM-26, clinical); details: Klebsiella pneumoniae, read-out: MIC of β-lactam with BLI
Protocol: as §1, §2, §3, §4, §5

[13] = system: Kpn.2918 (KPC-3, SHV+, TEM+, clinical); details: Klebsiella pneumoniae, read-out: MIC of β-lactam with BLI
Protocol: as §1, §2, §3, §4, §5

[14] = system: Kpn.2914 (KPC-2, SHV+, clinical); details: Klebsiella pneumoniae, read-out: MIC of β-lactam with BLI
Protocol: as §1, §2, §3, §4, §5

O=C1N2C[C@@H](CC[C@H]2c2nnco2)N1OS(=O)(=O)[O-].[Na+] [Hydrate 1, sodium (2S,5R)-2-(1,3,4-oxadiazol-2-yl)-7-oxo-1,6-diazabicyclo[3.2.1]octan-6-yl sulfate]
MIC [1]: 0.25 to 0.5 µg/mL
MIC [2]: 1 to 2 µg/mL
MIC [3]: 4 to 8 µg/mL
MIC [4]: 4 to 8 µg/mL
MIC [5]: 0.25 to 0.5 µg/mL
MIC [6]: 1 to 2 µg/mL
MIC [7]: 1 to 2 µg/mL
MIC [8]: 0.25 to 0.5 µg/mL
MIC [9]: 1 to 2 µg/mL
MIC [10]: 0.25 to 0.5 µg/mL
MIC [11]: 0.25 to 0.5 µg/mL
MIC [12]: 0.25 to 0.5 µg/mL
MIC [13]: 1 to 2 µg/mL
MIC [14]: 1 to 2 µg/mL
